Experimental findings from patent US11155555B2, “Compounds” (Janssen Pharmaceutica NV, priority 2015, dated 2021) are described below.

One data set deals with T1, FGFR2 (Homo sapiens, UniProt P21802).
T1 construct: purchased DiscoveRx Corporation (assay service)
Kind of data set: KINOMEscan enzyme binding assay FGFR2. Particulars: KINOMEscan (DiscoveRx); pKd = -log Kd, Kd in M. As for the experimental part: (§1) Enzyme Binding Assays (KINOMEscan®) Kinase enzyme binding affinities of compounds disclosed herein were determined using the KINOMEscan® technology performed by DiscoveRx Corporation, San Diego, Calif., USA (www.kinomescan.com). Table A2 reports the obtained pKd values, with Kd (M) being the inhibitor binding constant value and with pKd being −log Kd: […]

A further data set has as its target T2, FGFR3 (Homo sapiens, UniProt P22607).
T2 construct: purchased DiscoveRx Corporation (assay service)
Briefly: KINOMEscan enzyme binding assay FGFR3. The settings on record: KINOMEscan (DiscoveRx); pKd = -log Kd, Kd in M. As for the experimental part:
as §1

The next data set addresses T3, FGFR4 (Homo sapiens, UniProt P22455).
T3 construct: purchased DiscoveRx Corporation (assay service)
Briefly: KINOMEscan enzyme binding assay FGFR4. The settings on record: KINOMEscan (DiscoveRx); pKd = -log Kd, Kd in M. As for the experimental part: as §1

The target of another data set is T4, VEGFR2 (Homo sapiens, UniProt P35968).
T4 construct: purchased DiscoveRx Corporation (assay service)
T4 sequence (P35968 20-1356): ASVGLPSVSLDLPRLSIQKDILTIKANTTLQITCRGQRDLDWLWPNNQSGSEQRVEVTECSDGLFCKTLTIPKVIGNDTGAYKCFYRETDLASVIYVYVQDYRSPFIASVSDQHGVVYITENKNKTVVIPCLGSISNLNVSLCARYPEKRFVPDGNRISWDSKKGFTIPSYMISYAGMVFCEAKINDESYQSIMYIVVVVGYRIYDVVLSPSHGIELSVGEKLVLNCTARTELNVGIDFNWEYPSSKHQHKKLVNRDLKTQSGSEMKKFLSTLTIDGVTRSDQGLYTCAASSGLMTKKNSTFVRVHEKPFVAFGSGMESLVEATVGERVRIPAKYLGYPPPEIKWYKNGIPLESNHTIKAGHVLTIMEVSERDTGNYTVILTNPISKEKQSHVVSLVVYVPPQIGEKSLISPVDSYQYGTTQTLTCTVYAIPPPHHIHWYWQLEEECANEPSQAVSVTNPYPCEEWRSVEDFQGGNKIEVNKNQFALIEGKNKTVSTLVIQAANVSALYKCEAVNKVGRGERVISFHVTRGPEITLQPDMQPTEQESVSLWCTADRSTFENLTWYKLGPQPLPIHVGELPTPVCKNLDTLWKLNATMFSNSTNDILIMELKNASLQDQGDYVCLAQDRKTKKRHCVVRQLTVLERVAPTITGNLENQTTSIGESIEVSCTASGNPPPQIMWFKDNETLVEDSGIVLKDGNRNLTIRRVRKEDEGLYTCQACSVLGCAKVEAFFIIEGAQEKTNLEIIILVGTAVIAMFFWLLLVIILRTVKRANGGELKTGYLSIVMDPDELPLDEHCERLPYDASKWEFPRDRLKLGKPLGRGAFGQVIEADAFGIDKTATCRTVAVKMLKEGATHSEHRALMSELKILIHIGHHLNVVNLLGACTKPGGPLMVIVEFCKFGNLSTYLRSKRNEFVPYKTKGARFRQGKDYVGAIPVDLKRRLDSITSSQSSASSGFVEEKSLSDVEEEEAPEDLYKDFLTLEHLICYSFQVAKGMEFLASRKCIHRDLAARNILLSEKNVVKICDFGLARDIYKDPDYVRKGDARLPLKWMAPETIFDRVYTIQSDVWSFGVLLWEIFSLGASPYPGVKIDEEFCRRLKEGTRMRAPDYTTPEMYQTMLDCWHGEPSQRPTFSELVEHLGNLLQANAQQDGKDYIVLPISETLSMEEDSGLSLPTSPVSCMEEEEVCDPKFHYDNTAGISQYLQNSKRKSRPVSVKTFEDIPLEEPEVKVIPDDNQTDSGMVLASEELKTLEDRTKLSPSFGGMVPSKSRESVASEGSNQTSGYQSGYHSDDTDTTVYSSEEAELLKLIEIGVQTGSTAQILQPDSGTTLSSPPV
Kind of data set: KINOMEscan enzyme binding assay VEGFR2. Particulars: KINOMEscan (DiscoveRx); pKd = -log Kd, Kd in M. As for the experimental part: as §1

Another data set deals with T5, FGFR1 (Homo sapiens, UniProt P11362).
T5 construct: purchased DiscoveRx Corporation (assay service)
T5 sequence (P11362 22-822): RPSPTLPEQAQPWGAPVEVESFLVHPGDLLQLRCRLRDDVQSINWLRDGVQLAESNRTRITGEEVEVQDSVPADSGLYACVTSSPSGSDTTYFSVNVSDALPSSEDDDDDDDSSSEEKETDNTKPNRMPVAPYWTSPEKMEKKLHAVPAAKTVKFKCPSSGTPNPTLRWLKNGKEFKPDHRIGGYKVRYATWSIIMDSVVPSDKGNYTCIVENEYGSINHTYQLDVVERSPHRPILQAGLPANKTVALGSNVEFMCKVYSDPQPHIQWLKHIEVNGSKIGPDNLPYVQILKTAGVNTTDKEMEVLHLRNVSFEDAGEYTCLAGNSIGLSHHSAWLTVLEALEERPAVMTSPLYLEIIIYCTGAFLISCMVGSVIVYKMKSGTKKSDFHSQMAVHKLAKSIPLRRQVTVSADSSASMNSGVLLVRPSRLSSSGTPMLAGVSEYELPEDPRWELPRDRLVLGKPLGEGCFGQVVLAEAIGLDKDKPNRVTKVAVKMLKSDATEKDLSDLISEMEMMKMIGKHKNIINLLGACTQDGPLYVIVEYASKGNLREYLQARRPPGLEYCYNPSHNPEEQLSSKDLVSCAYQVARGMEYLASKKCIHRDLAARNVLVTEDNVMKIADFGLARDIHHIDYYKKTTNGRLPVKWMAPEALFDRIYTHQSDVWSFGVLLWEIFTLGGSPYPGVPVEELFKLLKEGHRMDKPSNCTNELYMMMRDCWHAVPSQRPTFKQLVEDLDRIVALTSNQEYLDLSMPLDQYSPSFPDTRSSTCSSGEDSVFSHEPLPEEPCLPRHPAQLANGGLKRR
Briefly: KINOMEscan enzyme binding assay FGFR1. The settings on record: KINOMEscan (DiscoveRx); pKd = -log Kd, Kd in M. As for the experimental part: as §1

T2 sequence (P22607 23-806): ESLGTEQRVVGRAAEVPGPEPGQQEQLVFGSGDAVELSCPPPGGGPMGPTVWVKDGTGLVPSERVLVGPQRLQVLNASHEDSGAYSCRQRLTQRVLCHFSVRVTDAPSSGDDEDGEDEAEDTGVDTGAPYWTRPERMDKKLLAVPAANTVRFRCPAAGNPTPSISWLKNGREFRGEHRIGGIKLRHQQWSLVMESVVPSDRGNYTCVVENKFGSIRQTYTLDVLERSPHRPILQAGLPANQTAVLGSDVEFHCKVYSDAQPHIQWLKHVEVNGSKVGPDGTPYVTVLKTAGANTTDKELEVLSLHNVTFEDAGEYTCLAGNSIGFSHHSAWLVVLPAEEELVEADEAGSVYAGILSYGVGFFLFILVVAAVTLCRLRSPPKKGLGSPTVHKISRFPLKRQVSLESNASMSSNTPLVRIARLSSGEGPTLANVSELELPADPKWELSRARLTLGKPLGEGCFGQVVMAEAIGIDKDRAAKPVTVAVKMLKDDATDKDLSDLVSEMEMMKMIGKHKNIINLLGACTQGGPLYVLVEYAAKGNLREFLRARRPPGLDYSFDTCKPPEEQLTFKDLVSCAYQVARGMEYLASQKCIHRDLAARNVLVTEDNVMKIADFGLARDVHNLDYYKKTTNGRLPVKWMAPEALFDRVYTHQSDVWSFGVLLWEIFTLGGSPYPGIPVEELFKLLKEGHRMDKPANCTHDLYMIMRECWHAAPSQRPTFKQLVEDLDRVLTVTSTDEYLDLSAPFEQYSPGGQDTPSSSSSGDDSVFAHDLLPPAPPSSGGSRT
T3 sequence (P22455 22-802): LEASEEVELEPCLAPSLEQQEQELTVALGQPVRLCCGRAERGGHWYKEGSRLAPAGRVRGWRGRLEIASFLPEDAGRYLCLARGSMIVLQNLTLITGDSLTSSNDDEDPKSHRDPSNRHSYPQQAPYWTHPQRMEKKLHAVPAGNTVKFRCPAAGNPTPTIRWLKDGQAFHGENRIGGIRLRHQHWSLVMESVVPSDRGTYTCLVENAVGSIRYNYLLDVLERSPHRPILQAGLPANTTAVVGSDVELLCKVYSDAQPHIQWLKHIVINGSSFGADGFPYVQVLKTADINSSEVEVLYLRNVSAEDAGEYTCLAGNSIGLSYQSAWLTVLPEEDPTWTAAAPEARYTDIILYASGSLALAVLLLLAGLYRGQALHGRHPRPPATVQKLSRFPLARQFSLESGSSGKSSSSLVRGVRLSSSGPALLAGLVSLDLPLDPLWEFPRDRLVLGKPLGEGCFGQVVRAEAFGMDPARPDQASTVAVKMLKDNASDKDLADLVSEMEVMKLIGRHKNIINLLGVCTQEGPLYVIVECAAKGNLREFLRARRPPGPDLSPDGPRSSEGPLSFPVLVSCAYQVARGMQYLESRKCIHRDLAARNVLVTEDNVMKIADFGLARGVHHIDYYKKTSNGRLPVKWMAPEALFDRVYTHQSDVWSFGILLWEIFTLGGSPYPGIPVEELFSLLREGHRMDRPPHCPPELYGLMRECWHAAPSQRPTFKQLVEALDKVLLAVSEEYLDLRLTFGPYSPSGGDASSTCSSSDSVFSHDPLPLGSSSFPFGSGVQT
T1 sequence (P21802 22-821): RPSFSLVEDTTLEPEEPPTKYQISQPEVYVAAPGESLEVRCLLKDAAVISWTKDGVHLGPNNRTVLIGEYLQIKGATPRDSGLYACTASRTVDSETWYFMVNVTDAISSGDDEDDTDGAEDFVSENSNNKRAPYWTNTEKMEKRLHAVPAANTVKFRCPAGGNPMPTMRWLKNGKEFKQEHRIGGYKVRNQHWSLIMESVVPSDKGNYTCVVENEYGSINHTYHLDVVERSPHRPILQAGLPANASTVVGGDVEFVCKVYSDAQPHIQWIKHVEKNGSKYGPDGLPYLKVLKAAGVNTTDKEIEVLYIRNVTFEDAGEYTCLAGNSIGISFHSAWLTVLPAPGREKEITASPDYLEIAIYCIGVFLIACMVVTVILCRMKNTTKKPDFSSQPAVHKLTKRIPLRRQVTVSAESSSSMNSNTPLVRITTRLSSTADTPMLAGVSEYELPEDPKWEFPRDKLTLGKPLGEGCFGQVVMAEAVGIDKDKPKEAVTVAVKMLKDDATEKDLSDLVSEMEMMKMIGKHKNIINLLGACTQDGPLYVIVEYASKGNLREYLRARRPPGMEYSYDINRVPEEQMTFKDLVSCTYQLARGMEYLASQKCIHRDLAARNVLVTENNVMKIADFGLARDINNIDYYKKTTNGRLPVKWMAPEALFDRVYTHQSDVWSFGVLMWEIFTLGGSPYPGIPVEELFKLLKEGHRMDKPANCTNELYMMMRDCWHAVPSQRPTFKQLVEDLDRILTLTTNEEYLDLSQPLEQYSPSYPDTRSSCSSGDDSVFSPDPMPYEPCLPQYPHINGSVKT

As for `COc1cc(OC)c(F)c(N2CCN(C(C)C)Cc3c2ccc2ncc(-c4cnn(C)c4)nc32)c1` [Compound 1], the melting point (in general, the temperature, or range, at which the solid turns liquid) is 166 °C. Also, binding on FGFR2 was put at a Kd of 4.27 nM. Further, the equilibrium dissociation constant (Kd) (usually a measure of binding affinity in units of concentration) at FGFR3 was 2.4 nM. Also, the Kd on FGFR4 was 11 nM. Also, at VEGFR2, the Kd was 45.7 nM. The same compound gave a dissociation constant (Kd) on FGFR1 of 0.794 nM.

Turning to `COc1cc(OC)c(F)c(N2CCN(C(C)C)Cc3c2ccc2ncc(-c4cnn(C)c4)cc32)c1` [Compound 2], the Kd at FGFR2 was 6.03 nM; at FGFR3 it was 4.17 nM; on FGFR4, 8.91 nM; on VEGFR2, 93.3 nM; at FGFR1 it was 1.48 nM.

Turning to `COc1cc(OC)c(F)c(N2CCN(C(C)C)Cc3c2ccc2ncc(-c4cn[nH]c4)nc32)c1` [Compound 3], the equilibrium dissociation constant (Kd) is 11.7 nM at FGFR2; 5.5 nM on FGFR3; 15.8 nM on FGFR4; 70.8 nM on VEGFR2; 1.55 nM on FGFR1.

In the case of `COc1cc(OC)c(Cl)c(N2CCN(C(C)C)Cc3c2ccc2ncc(-c4cnn(C)c4)nc32)c1` [Compound 4], the Kd was 19.1 nM at FGFR2; 7.41 nM on FGFR3; 27.5 nM on FGFR4; 58.9 nM at VEGFR2; 2.09 nM on FGFR1.

On to `COc1cc(OC)c(Cl)c(N2CCN(C(C)C)Cc3c2ccc2ncc(-c4cnn(C)c4)nc32)c1Cl` [Compound 5], for which the Kd is 26.9 nM at FGFR2; 14.1 nM at FGFR3; 77.6 nM at FGFR4; 263 nM on VEGFR2; 7.24 nM on FGFR1.

Consider `CC(C)N1CCN(c2cc(O)cc(O)c2F)c2ccc3ncc(-c4cnn(C)c4)nc3c2C1` [Compound 9], for which the Kd was above 3020 nM on FGFR2; above 3020 nM on FGFR3; above 3020 nM at FGFR4; above 3020 nM on VEGFR2; 977 nM on FGFR1.

Turning to `COc1cc(O)cc(N2CCN(C(C)C)Cc3c2ccc2ncc(-c4cnn(C)c4)nc32)c1F` [Compound 11], the Kd on FGFR2 is 44.7 nM; at FGFR3, 8.91 nM; at FGFR4 it was 60.3 nM; on VEGFR2 it was 123 nM; on FGFR1, 3.89 nM.

Turning to `COc1cc(OC)c(F)c(N2CCN(C(C)C)Cc3c2ccc2ncc(-c4cnn(C)c4)cc32)c1F` [Compound 12], the Kd on FGFR2 was 19.5 nM; at FGFR3, 10.7 nM; at FGFR4, 38 nM; at VEGFR2, 115 nM; on FGFR1 it was 3.09 nM.

In the case of `COc1cc(OC)c(F)c(N2CCN(C(C)C)Cc3c2ccc2ncc(-c4cn[nH]c4)cc32)c1` [Compound 16], the Kd is 39.8 nM at FGFR2; 7.94 nM on FGFR3; 18.2 nM at FGFR4; 275 nM on VEGFR2; 2.29 nM on FGFR1.
